The text below walks through data of patent publication US9834542B2, “LXR modulators” (BRISTOL-MYERS SQUIBB COMPANY, priority 2013, dated 2017).

The target of this assay is T1, LXRβ (Homo sapiens, UniProt P55055).
T1 construct: Co-transfection expression plasmids, comprising full-length LXRα (pCMX-h LXRα[…] or LXRβ (pCMX-hLXRβ)); expressed in transfected cells; host or cells: CV-1 African Green Monkey Kidney Cells
T1 sequence (P55055 1-460): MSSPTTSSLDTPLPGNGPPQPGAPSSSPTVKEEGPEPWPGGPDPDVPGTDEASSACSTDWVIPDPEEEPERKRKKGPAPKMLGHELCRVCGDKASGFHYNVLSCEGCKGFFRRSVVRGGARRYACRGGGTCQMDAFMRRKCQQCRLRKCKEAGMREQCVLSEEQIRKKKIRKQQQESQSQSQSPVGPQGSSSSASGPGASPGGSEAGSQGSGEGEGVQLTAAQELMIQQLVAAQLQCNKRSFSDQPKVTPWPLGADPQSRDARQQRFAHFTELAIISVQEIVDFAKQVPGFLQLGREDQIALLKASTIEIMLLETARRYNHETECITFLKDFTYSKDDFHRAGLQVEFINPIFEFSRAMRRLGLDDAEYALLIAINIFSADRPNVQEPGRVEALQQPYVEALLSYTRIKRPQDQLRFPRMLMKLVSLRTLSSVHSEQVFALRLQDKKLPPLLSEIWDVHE
T1 sequence (P19793 1-462 partner): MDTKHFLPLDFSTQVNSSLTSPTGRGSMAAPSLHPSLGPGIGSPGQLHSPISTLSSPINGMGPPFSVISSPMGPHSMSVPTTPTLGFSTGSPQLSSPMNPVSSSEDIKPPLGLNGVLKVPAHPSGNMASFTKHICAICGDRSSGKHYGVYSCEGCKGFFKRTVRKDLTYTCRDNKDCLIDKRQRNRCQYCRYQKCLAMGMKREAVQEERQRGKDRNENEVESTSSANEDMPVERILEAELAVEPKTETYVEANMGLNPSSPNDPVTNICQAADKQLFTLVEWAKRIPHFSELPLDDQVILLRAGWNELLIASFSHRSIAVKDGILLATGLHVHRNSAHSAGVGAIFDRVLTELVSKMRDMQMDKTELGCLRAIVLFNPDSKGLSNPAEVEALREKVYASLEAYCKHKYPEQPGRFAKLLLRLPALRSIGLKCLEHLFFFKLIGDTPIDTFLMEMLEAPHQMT
As to the kind of experiment: Co-transfection assay (LXRE luciferase reporter), LXRβ. It counts as cell-based. To be noted: for EC50: CV-1 cells transfected with pCMX-hLXRβ and LXREx1-Tk-Luciferase, 20 hours incubation; for Emax: LXRβ co-transfection, relative to high control 1-(2,4-difluorobenzyl)-2-oxo-6-(4-phenoxyphenyl)-4-(trifluoromethyl)-1,2-dihydropyridine-3-carbonitrile, read-out: % Efficacy. In a few lines: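 CV-1 cells transiently co-transfected with full-length human LXRβ (or LXRα), LXREx1-Tk-luciferase reporter and β-galactosidase control; compound added (10 μM final in single-point, 11-point ½-log curves, ≤0.5% DMSO) for 20 h at 37 °C. Luciferase read; EC50 from four-parameter fit, efficacy relative to reference agonist high control.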

Turning to `Cc1cc(-c2cc(-c3cc(F)c(CO)c(S(C)(=O)=O)c3)ccc2-n2cc(C(F)(F)F)nc2C)n(-c2ccc(OC(F)F)cc2)n1` [Example 287, (3′-(1-(4-(difluoromethoxy)phenyl)-3-methyl-1H-pyrazol-5-yl)-3-fluoro-4′-(2-methyl-4-(trifluoromethyl)-1H-imidazol-1-yl)-5-(methylsulfonyl)biphenyl-4-yl)methanol], the EC50 was determined as 26 nM and the Emax was found to be 80%.
The matching figures for `Cc1nc(C(F)(F)F)cn1-c1ccc(-c2cccc(S(C)(=O)=O)c2)cc1-n1nncc1C(C)(C)c1ccc(Cl)cc1` [Example 222, 5-(2-(4-chlorophenyl)propan-2-yl)-1-(4-(2-methyl-4-(trifluoromethyl)-1H-imidazol-1-yl)-3′-(methylsulfonyl)-[1,1′-biphenyl]-3-yl)-1H-1,2,3-triazole]: 1850 nM and 43%.
The matching figures for `Cc1nc(C(F)(F)F)cn1-c1ccc(-c2cccc(S(C)(=O)=O)c2)cc1-n1nncc1-c1ccc(F)cc1F` [Example 40, 5-(2,4-difluorophenyl)-1-{3′-(methylsulfonyl)-4-[2-methyl-4-(trifluoromethyl)-1H-imidazol-1-yl]biphenyl-3-yl}-1H-1,2,3-triazole]: 954 nM and 87%.
On to `Cc1nc(C(F)(F)F)cn1-c1ccc(-c2cccc(S(C)(=O)=O)c2)cc1-n1nncc1Cc1ccc(OC(F)(F)F)cc1` [Example 118, 1-{3′-(methylsulfonyl)-4-[2-methyl-4-(trifluoromethyl)-1H-imidazol-1-yl]biphenyl-3-yl}-5-({4-[(trifluoromethyl)oxy]phen-yl}methyl)-1H-1,2,3-triazole], for which it took 1040 nM to reach a half-maximal effect (EC50) and the Emax was 61%.
In the case of `Cc1nc(C(F)(F)F)cn1-c1ccc(-c2cccc(S(C)(=O)=O)c2)cc1-c1nc(C(C)C)oc1-c1ccc2c(c1)OC(F)(F)O2` [Example 480, 5-(2,2-difluorobenzo[d][1,3]dioxol-5-yl)-2-isopropyl-4-(4-(2-methyl-4-(trifluoromethyl)-1H-imidazol-1-yl)-3′-(methylsulfonyl)biphenyl-3-yl)oxazole], the EC50 was 63 nM and the Emax is 74%.
The corresponding values for `CCOCc1ccc(-c2ccc(-n3cc(C(F)(F)F)nc3C)c(-n3nncc3-c3ccc(OC(F)(F)F)cc3)c2)cc1S(C)(=O)=O` [Example 85, 1-{4′-[(ethyloxy)methyl]-3′-(methylsulfonyl)-4-[2-methyl-4-(trifluoromethyl)-1H-imidazol-1-yl]biphenyl-3-yl}-5-{4-[(trifluoromethyl)oxy]phenyl}-1H-1,2,3-triazole] are 118 nM and 123%.
The corresponding values for `Cc1nc(C(F)(F)F)cn1-c1ccc(-c2cc(F)c(CO)c(S(C)(=O)=O)c2)cc1-c1ocnc1Cc1ccc(Cl)cc1` [Example 633, (3′-(4-(4-chlorobenzyl)oxazol-5-yl)-3-fluoro-4′-(2-methyl-4-(trifluoromethyl)-1H-imidazol-1-yl)-5-(methylsulfonyl)-[1,1′-biphenyl]-4-yl)methanol] are 161 nM and 66%.
The matching figures for `Cc1nc(-c2cc(-c3cccc(C(C)(C)C(N)=O)c3)ccc2-n2cc(C(F)(F)F)nc2C)c(-c2ccc(OC(F)F)cc2)o1` [Example 542, 2-(3′-(5-(4-(difluoromethoxy)phenyl)-2-methyloxazol-4-yl)-4′-(2-methyl-4-(trifluoromethyl)-1H-imidazol-1-yl)-[1,1′-biphenyl]-3-yl)-2-methylpropanamide]: 82 nM and 89%.
As to `Cc1nc(-c2cc(-c3cc(F)c(CO)c(S(C)(=O)=O)c3)ccc2-n2cc(C(F)(F)F)nc2C)c(-c2ccc3c(c2)CC(C)(C)O3)o1` [Example 420, (3′-(5-(2,2-dimethyl-2,3-dihydrobenzofuran-5-yl)-2-methyloxazol-4-yl)-3-fluoro-4′-(2-methyl-4-(trifluoromethyl)-1H-imidazol-1-yl)-5-(methylsulfonyl)biphenyl-4-yl)methanol], a half-maximal effect (EC50) was put at 82 nM and the Emax was 86%.
The corresponding values for `Cc1nc(-c2cc(-c3ccc(CO)c(S(C)(=O)=O)c3)ccc2-n2cc(C(F)(F)F)nc2C)c(-c2ccc(OC(F)F)cc2)o1` [Example 497, (3′-(5-(4-(difluoromethoxy)phenyl)-2-methyloxazol-4-yl)-4′-(2-methyl-4-(trifluoromethyl)-1H-imidazol-1-yl)-3-(methylsulfonyl)biphenyl-4-yl)methanol] are 88 nM and 124%.
The corresponding values for `Cc1nc(-c2cc(-c3cc(F)c(CO)c(S(C)(=O)=O)c3)ccc2-n2cc(C(F)(F)F)nc2C)c(-c2ccc(Cl)cc2F)o1` [Example 485, (3′-(5-(4-chloro-2-fluorophenyl)-2-methyloxazol-4-yl)-3-fluoro-4′-(2-methyl-4-(trifluoromethyl)-1H-imidazol-1-yl)-5-(methylsulfonyl)biphenyl-4-yl)methanol] are 32 nM and 55%.
The corresponding values for `Cc1nc(-c2cc(-c3cccc(S(=O)(=O)C4CC4)c3)ccc2-n2cc(C(F)(F)F)nc2C)c(-c2ccc(OC(F)F)c(F)c2)o1` [Example 429, 4-(3′-(cyclopropylsulfonyl)-4-(2-methyl-4-(trifluoromethyl)-1H-imidazol-1-yl)biphenyl-3-yl)-5-(4-(difluoromethoxy)-3-fluorophenyl)-2-methyloxazole] are 74 nM and 83%.
With `Cc1nc(-c2cc(-c3ccc(CO)c(S(C)(=O)=O)c3)ccc2-n2cc(C(F)(F)F)nc2C)c(-c2ccc(OC(F)(F)F)cc2)o1` [Example 522, (4′-(2-methyl-4-(trifluoromethyl)-1H-imidazol-1-yl)-3′-(2-methyl-5-(4-(trifluoromethoxy)phenyl)oxazol-4-yl)-3-(methylsulfonyl)-[1,1′-biphenyl]4-yl)methanol], the EC50 was determined as 42 nM and the Emax stood at 86%.
The matching figures for `Cc1nc(C(C)(F)F)cn1-c1ccc(-c2cccc(S(C)(=O)=O)c2)cc1-n1nncc1-c1ccc(Cl)cc1Cl` [Example 180, 5-(2,4-dichlorophenyl)-1-{4-[4-(1,1-difluoroethyl)-2-methyl-1H-imidazol-1-yl]-3′-(methylsulfonyl)biphenyl-3-yl}-1H-1,2,3-triazole]: 606 nM and 48%.
The corresponding values for `Cc1nc(C(F)(F)F)cn1-c1ccc(-c2cc(F)c(CO)c(S(C)(=O)=O)c2)cc1-n1nncc1-c1ccc(OC(F)(F)F)c(F)c1` [Example 56, {3-fluoro-3′-(5-{3-fluoro-4-[(trifluoromethyl)oxy]phenyl}-1H-1,2,3-triazol-1-yl)-5-(methylsulfonyl)-4′-[2-methyl-4-(trifluoromethyl)-1H-imidazol-1-yl]biphenyl-4-yl}methanol] are 133 nM and 101%.
The corresponding values for `Cc1nc(-c2cc(-c3cc(F)c(CO)c(S(C)(=O)=O)c3)ccc2-n2cc(C(F)(F)F)nc2C)c(-c2cccnc2C2CC2)o1` [Example 391] are 207 nM and 51%.
As to `Cc1cc(-c2cnnn2-c2cc(-c3cccc(S(C)(=O)=O)c3)ccc2-n2cc(C(F)(F)F)nc2C)ccc1OC(F)(F)F` [Example 20, 1-{3′-(methylsulfonyl)-4-[2-methyl-4-(trifluoromethyl)-1H-imidazol-1-yl]biphenyl-3-yl}-5-{3-methyl-4-[(trifluoromethyl)oxy]phenyl}-1H-1,2,3-triazole], a half-maximal effect (EC50) was put at 130 nM and the Emax is 93%.

What is called EC50 is the concentration that produces a half-maximal response. Lower therefore signals higher potency in that assay.
